Source: PubChem BioAssay (NCI)
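Test compounds were applied to cells in 96-well plates for 48 hours at 5 doses. TGI marks complete inhibition of growth.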

Columns and labels:
Assay in all cases: inhibition of tumour cell growth, NCI panel, 48 h
A498 renal = test system: A498 renal
NCI-H226 lung = test system: NCI-H226 lung
DMS 273 small cell lung = test system: DMS 273 small cell lung
SF-268 CNS = test system: SF-268 CNS
OVCAR-8 ovarian = test system: OVCAR-8 ovarian
OVCAR-5 ovarian = test system: OVCAR-5 ovarian
786-0 renal = test system: 786-0 renal
U251 CNS = test system: U251 CNS
HOP-62 NSCLC = test system: HOP-62 NSCLC
MALME-3M melanoma = test system: MALME-3M melanoma
OVCAR-4 ovarian = test system: OVCAR-4 ovarian
SNB-75 CNS = test system: SNB-75 CNS
XF 498 CNS = test system: XF 498 CNS
HCT-116 colon = test system: HCT-116 colon
SK-MEL-2 melanoma = test system: SK-MEL-2 melanoma
HCC-2998 colon = test system: HCC-2998 colon
EKVX NSCLC = test system: EKVX NSCLC
SW-620 colon = test system: SW-620 colon
ACHN renal = test system: ACHN renal
UACC-62 melanoma = test system: UACC-62 melanoma
SN12C renal = test system: SN12C renal
SR leukemia = test system: SR leukemia
SK-MEL-28 melanoma = test system: SK-MEL-28 melanoma
HOP-92 NSCLC = test system: HOP-92 NSCLC
CCRF-CEM leukemia = test system: CCRF-CEM leukemia
DMS 114 small cell lung = test system: DMS 114 small cell lung
CAKI-1 renal = test system: CAKI-1 renal
KM12 colon = test system: KM12 colon
M14 melanoma = test system: M14 melanoma
OVCAR-3 ovarian = test system: OVCAR-3 ovarian
SF-295 CNS = test system: SF-295 CNS
UACC-257 melanoma = test system: UACC-257 melanoma
HCT-15 colon = test system: HCT-15 colon
TK-10 renal = test system: TK-10 renal
SK-OV-3 ovarian = test system: SK-OV-3 ovarian
IGROV1 ovarian = test system: IGROV1 ovarian
LOX IMVI melanoma = test system: LOX IMVI melanoma
SF-539 CNS = test system: SF-539 CNS
UO-31 renal = test system: UO-31 renal
HT29 colon = test system: HT29 colon
NCI-H460 lung = test system: NCI-H460 lung
RXF 393 renal = test system: RXF 393 renal
SK-MEL-5 melanoma = test system: SK-MEL-5 melanoma
MOLT-4 leukemia = test system: MOLT-4 leukemia
K-562 leukemia = test system: K-562 leukemia
COLO 205 colon = test system: COLO 205 colon
LXFL 529 NSCLC = test system: LXFL 529 NSCLC
SNB-78 CNS = test system: SNB-78 CNS
NCI-H23 lung = test system: NCI-H23 lung
NCI-H522 lung = test system: NCI-H522 lung
KM20L2 colon = test system: KM20L2 colon
A549 NSCLC = test system: A549 NSCLC
M19-MEL melanoma = test system: M19-MEL melanoma
HOP-18 NSCLC = test system: HOP-18 NSCLC
HL-60(TB) leukemia = test system: HL-60(TB) leukemia
DLD-1 colon = test system: DLD-1 colon

COc1cc(Nc2nc3cc(C(F)(F)F)ccc3nc2C)cc(OC)c1OC
TGI (A498 renal): 18.8 µM | TGI (NCI-H226 lung): 22.8 µM | TGI (DMS 273 small cell lung): 30 µM | TGI (SF-268 CNS): 33.5 µM | TGI (OVCAR-8 ovarian): 24.5 µM | TGI (OVCAR-5 ovarian): 26.7 µM | TGI (786-0 renal): 24.8 µM | TGI (U251 CNS): 22.4 µM | TGI (HOP-62 NSCLC): 30.6 µM | TGI (MALME-3M melanoma): 26.6 µM | TGI (OVCAR-4 ovarian): 34 µM | TGI (SNB-75 CNS): 39 µM | TGI (XF 498 CNS): 8.77 µM | TGI (HCT-116 colon): 21.1 µM | TGI (SK-MEL-2 melanoma): 23.6 µM | TGI (HCC-2998 colon): 12.6 µM | TGI (EKVX NSCLC): 30.6 µM | TGI (SW-620 colon): 26.6 µM | TGI (ACHN renal): 20.8 µM | TGI (UACC-62 melanoma): 13.3 µM | TGI (SN12C renal): 23 µM | TGI (SR leukemia): 30.3 µM | TGI (SK-MEL-28 melanoma): 25.3 µM | TGI (HOP-92 NSCLC): 0.95 µM | TGI (CCRF-CEM leukemia): 24.3 µM | TGI (DMS 114 small cell lung): 23.8 µM | TGI (CAKI-1 renal): 20.8 µM | TGI (KM12 colon): 21.5 µM | TGI (M14 melanoma): 21.3 µM | TGI (OVCAR-3 ovarian): 30.9 µM | TGI (SF-295 CNS): 4.91 µM | TGI (UACC-257 melanoma): 21.4 µM | TGI (HCT-15 colon): 12.2 µM | TGI (TK-10 renal): 23.3 µM | TGI (SK-OV-3 ovarian): 30.5 µM | TGI (IGROV1 ovarian): 32 µM | TGI (LOX IMVI melanoma): 10.9 µM | TGI (SF-539 CNS): 25.4 µM | TGI (UO-31 renal): 12.6 µM | TGI (HT29 colon): 13 µM | TGI (NCI-H460 lung): 17.7 µM | TGI (RXF 393 renal): 17.9 µM | TGI (SK-MEL-5 melanoma): 25.2 µM | TGI (MOLT-4 leukemia): 31 µM | TGI (K-562 leukemia): 20.1 µM | TGI (COLO 205 colon): 25.3 µM | TGI (LXFL 529 NSCLC): 21.7 µM | TGI (SNB-78 CNS): 25.9 µM | TGI (NCI-H23 lung): 23.2 µM | TGI (NCI-H522 lung): 25 µM

COC1CC(OC)C(O)C(CO)O1 (stereo not drawn)
TGI (KM20L2 colon): > 100 µM | TGI (OVCAR-8 ovarian): > 100 µM | TGI (OVCAR-5 ovarian): > 100 µM | TGI (786-0 renal): > 100 µM | TGI (U251 CNS): > 100 µM | TGI (HOP-62 NSCLC): > 100 µM | TGI (MALME-3M melanoma): > 100 µM | TGI (A549 NSCLC): > 100 µM | TGI (OVCAR-4 ovarian): > 100 µM | TGI (SNB-75 CNS): > 100 µM | TGI (XF 498 CNS): > 100 µM | TGI (HCT-116 colon): > 100 µM | TGI (M19-MEL melanoma): > 100 µM | TGI (SK-MEL-2 melanoma): > 100 µM | TGI (HCC-2998 colon): > 100 µM | TGI (EKVX NSCLC): > 100 µM | TGI (SW-620 colon): > 100 µM | TGI (ACHN renal): > 100 µM | TGI (UACC-62 melanoma): > 100 µM | TGI (SN12C renal): > 100 µM | TGI (SR leukemia): > 100 µM | TGI (SK-MEL-28 melanoma): > 100 µM | TGI (CCRF-CEM leukemia): > 100 µM | TGI (HOP-18 NSCLC): > 100 µM | TGI (HL-60(TB) leukemia): > 100 µM | TGI (KM12 colon): > 100 µM | TGI (M14 melanoma): > 100 µM | TGI (OVCAR-3 ovarian): > 100 µM | TGI (SF-295 CNS): > 100 µM | TGI (UACC-257 melanoma): > 100 µM | TGI (HCT-15 colon): > 100 µM | TGI (TK-10 renal): > 100 µM | TGI (SK-OV-3 ovarian): > 100 µM | TGI (DLD-1 colon): > 100 µM | TGI (IGROV1 ovarian): > 100 µM | TGI (LOX IMVI melanoma): > 100 µM | TGI (SF-539 CNS): > 100 µM | TGI (UO-31 renal): > 100 µM | TGI (HT29 colon): > 100 µM | TGI (NCI-H460 lung): > 100 µM | TGI (RXF 393 renal): > 100 µM | TGI (SK-MEL-5 melanoma): > 100 µM | TGI (MOLT-4 leukemia): > 100 µM | TGI (K-562 leukemia): > 100 µM | TGI (LXFL 529 NSCLC): > 100 µM | TGI (SNB-78 CNS): > 100 µM | TGI (NCI-H23 lung): > 100 µM | TGI (NCI-H522 lung): > 100 µM
